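Five compound concentrations were applied to cells in 96-well plates for 48 hours; endpoints were derived by simple linear interpolation of the resulting dose-response curve. The concentration for 50% growth inhibition is given as GI50.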 Activity calls are given as the source filed them. Cut-off read from the data, not from the text of the source: active = GI50 up to about 1.1 µM and inactive = higher.
What was measured:
Assay in all cases: NCI anticancer screen, dose series, 48 h
NCI-H522 = system: NCI-H522
MDA-MB-435 = system: MDA-MB-435
UACC-62 = system: UACC-62
IGROV-1 = system: IGROV-1
786-0 = system: 786-0
SK-MEL-5 = system: SK-MEL-5
NCI-H226 = system: NCI-H226
MDA-N = system: MDA-N
PC-3 = system: PC-3
SK-MEL-2 = system: SK-MEL-2
U-251 = system: U-251
SW-620 = system: SW-620
T47D = system: T47D
HCT-116 = system: HCT-116
BT-549 = system: BT-549
RXF 393 = system: RXF 393
KM-20L2 = system: KM-20L2
DLD-1 = system: DLD-1
SNB-78 = system: SNB-78
M19-MEL = system: M19-MEL

Measured: GI50

C=C1C(=O)O[C@@H]2/C=C(\C)CC/C=C(\C)CC[C@@]12O
inactive: MDA-MB-435 2.62 µM | UACC-62 9.35 µM | IGROV-1 3.52 µM | 786-0 1.37 µM | SK-MEL-5 4.59 µM | NCI-H226 13.8 µM | MDA-N 2.25 µM | PC-3 4.28 µM | SK-MEL-2 9.38 µM | U-251 7.36 µM | T47D 1.41 µM | HCT-116 2.42 µM | BT-549 1.99 µM
active: NCI-H522 0.371 µM | SW-620 1.04 µM | RXF 393 0.185 µM

CC(C)(C)[Si](C)(C)OCCCC#CCO
inactive: NCI-H522 > 100 µM | UACC-62 > 100 µM | KM-20L2 > 100 µM | IGROV-1 > 100 µM | SK-MEL-5 > 100 µM | DLD-1 > 100 µM | SK-MEL-2 > 100 µM | U-251 > 100 µM | SW-620 > 100 µM | SNB-78 > 100 µM | RXF 393 > 100 µM

Cc1cc(C)nc(NS(=O)(=O)c2ccc(NNc3c4ccccc4nc4c(C(=O)Nc5ccc(S(N)(=O)=O)cc5)cccc34)cc2)n1
inactive: NCI-H522 19.7 µM | MDA-MB-435 47.2 µM | UACC-62 27.7 µM | IGROV-1 34.6 µM | 786-0 66.5 µM | SK-MEL-5 30.5 µM | NCI-H226 32 µM | MDA-N 49.5 µM | PC-3 18.6 µM | SK-MEL-2 12.8 µM | U-251 14.1 µM | SW-620 45.3 µM | T47D 4.23 µM | HCT-116 28.2 µM | BT-549 34.8 µM | RXF 393 40.1 µM

O=C1OC(C2Cc3ccc4c(c3C2=O)CCC4)c2ccccc21 (stereo not given)
inactive: NCI-H522 > 100 µM | MDA-MB-435 40.5 µM | UACC-62 42.2 µM | IGROV-1 82.4 µM | 786-0 40.7 µM | SK-MEL-5 43.1 µM | NCI-H226 26.1 µM | MDA-N 40.3 µM | PC-3 30.5 µM | SK-MEL-2 64.9 µM | U-251 38.8 µM | SW-620 54.5 µM | T47D 54.6 µM | HCT-116 45.6 µM | BT-549 42.1 µM | RXF 393 37.7 µM

Cc1cn(C2CC(O)C(Cn3cc(Cn4nc(Br)c(=O)[nH]c4=O)nn3)O2)c(=O)[nH]c1=O (stereo not given)
inactive: MDA-MB-435 > 100 µM | UACC-62 > 100 µM | SK-MEL-5 > 100 µM | NCI-H226 > 100 µM | MDA-N > 100 µM | PC-3 > 100 µM | SK-MEL-2 > 100 µM | U-251 > 100 µM | SW-620 > 100 µM | T47D > 100 µM | HCT-116 > 100 µM | BT-549 > 100 µM | RXF 393 > 100 µM

CCCCCCCCCCCCCCCCNc1nc(=O)n(C2CC(O)C(CO)O2)cc1F (stereo not given)
inactive: NCI-H522 5.28 µM | MDA-MB-435 12.2 µM | UACC-62 10.7 µM | IGROV-1 11.6 µM | 786-0 2.88 µM | SK-MEL-5 11.6 µM | NCI-H226 1.28 µM | MDA-N 16 µM | PC-3 3.93 µM | SK-MEL-2 19.6 µM | U-251 11.7 µM | SW-620 13 µM | T47D 11.7 µM | HCT-116 8.26 µM | BT-549 16.3 µM | RXF 393 13.5 µM

COC1CCC(CO)OO1 (stereo not given)
inactive: NCI-H522 12.9 µM | UACC-62 70.3 µM | KM-20L2 23.9 µM | IGROV-1 26.4 µM | SK-MEL-2 47.9 µM | U-251 4.57 µM | SNB-78 15.9 µM | HCT-116 30.3 µM | M19-MEL 60.4 µM | RXF 393 33.7 µM

CN(C)C(=O)/N=C1\SC(=N\c2ccccc2)/C(=N/c2ccccc2)N1c1ccc([N+](=O)[O-])cc1
inactive: NCI-H522 > 100 µM | MDA-MB-435 > 100 µM | UACC-62 77.4 µM | IGROV-1 > 100 µM | SK-MEL-5 49.8 µM | NCI-H226 > 100 µM | MDA-N > 100 µM | PC-3 > 100 µM | SK-MEL-2 > 100 µM | U-251 > 100 µM | T47D > 100 µM | HCT-116 > 100 µM | BT-549 > 100 µM | RXF 393 > 100 µM

Nc1nc(=O)[nH]cc1F [FLUCYTOSINE]
inactive: NCI-H522 > 100 µM | MDA-MB-435 > 100 µM | UACC-62 > 100 µM | IGROV-1 > 100 µM | 786-0 > 100 µM | SK-MEL-5 > 100 µM | NCI-H226 > 100 µM | MDA-N > 100 µM | PC-3 > 100 µM | SK-MEL-2 > 100 µM | U-251 32.7 µM | SW-620 > 100 µM | T47D > 100 µM | HCT-116 > 100 µM | BT-549 > 100 µM | RXF 393 > 100 µM

Cc1ccc([N+](=O)[O-])cc1S(=O)(=O)Nc1ccc(C2=NN(C(=O)c3ccccc3)C(c3ccccc3)C2)cc1 (stereo not given)
inactive: NCI-H522 11.5 µM | MDA-MB-435 21.2 µM | IGROV-1 17 µM | 786-0 17.4 µM | SK-MEL-5 12.9 µM | NCI-H226 15.5 µM | MDA-N 21.2 µM | PC-3 19.8 µM | SK-MEL-2 14.4 µM | U-251 16.6 µM | SW-620 40.7 µM | T47D 10.6 µM | HCT-116 18.1 µM | BT-549 22.6 µM | RXF 393 12.1 µM

COc1ccc2c(c1)c1c(n2CCN2CCCCC2)-c2cccc(OC)c2CC1
inactive: NCI-H522 3.82 µM | MDA-MB-435 14.7 µM | UACC-62 14.2 µM | IGROV-1 13.4 µM | 786-0 20.2 µM | SK-MEL-5 18.2 µM | NCI-H226 10 µM | MDA-N 16.2 µM | PC-3 12.7 µM | SK-MEL-2 17.4 µM | U-251 13.1 µM | SW-620 16.7 µM | T47D 16.3 µM | HCT-116 24.7 µM | BT-549 13.9 µM

O=C(O)c1cccc(OCCO)c1
inactive: NCI-H522 > 100 µM | MDA-MB-435 > 100 µM | UACC-62 > 100 µM | IGROV-1 > 100 µM | 786-0 > 100 µM | SK-MEL-5 > 100 µM | NCI-H226 > 100 µM | MDA-N > 100 µM | PC-3 > 100 µM | SK-MEL-2 > 100 µM | U-251 > 100 µM | SW-620 > 100 µM | T47D > 100 µM | HCT-116 > 100 µM | BT-549 > 100 µM | RXF 393 > 100 µM

CC(=O)Nc1ccc2oc(=O)c3ccccc3c2c1
inactive: NCI-H522 > 100 µM | MDA-MB-435 > 100 µM | UACC-62 50.9 µM | IGROV-1 > 100 µM | 786-0 > 100 µM | SK-MEL-5 > 100 µM | NCI-H226 > 100 µM | MDA-N > 100 µM | PC-3 > 100 µM | SK-MEL-2 > 100 µM | U-251 > 100 µM | SW-620 > 100 µM | T47D > 100 µM | HCT-116 > 100 µM | BT-549 > 100 µM | RXF 393 > 100 µM
